Tests used:
[1] = system: human induced pluripotent stem (iPS) cells; type: cell-based; settings: human
Description: The dibenzyl butyl lactone derivative enantiomer A and B were compared to enterolactone and tested to determine toxicity using a human pluripotent stem (hPS) cell-based assay that predicts the developmental toxicity potential. […] The current study was conducted using human induced pluripotent stem (iPS) cells.
The impact of test article exposure on ornithine and cystine metabolism in human induced pluripotent stem (iPS) cells was measured for three test articles (dibenzyl butyl lactone derivative enantiomer A, dibenzyl butyl lactone derivative enantiomer B, and enterolactone) and prediction of the potential for developmental toxicity was made through application of the hPS cell-based assay. Exposure spanned a range of eight treatment levels per test article ranging from 0.03-100 μM.
The observed decrease in the o/c ratio following exposure to each test article is indicative of the potential for developmental toxicity and/or embryo lethality in vivo at or above the dTP concentration. FIGS. 15A-C show the o/c ratio of dibenzyl butyl lactone derivative enantiomer A (FIG. 15A), dibenzyl butyl lactone derivative enantiomer B (FIG. 15B), and (+/−) enterolactone (FIG. 15C). The graphs in FIGS. 15A-C show the cell viability and o/c/ ratio over concentrations of 0.03-100 μM with the straight horizontal line illustrating the developmental toxicity threshold of 0.85.

[2] = system: MCF7 (human breast cancer cell line); experiment: MTT toxicity assay in MCF7 breast cancer cells; type: cell-based
Description: Toxicity of the dibenzyl butyl lactone derivative (3-[(3,4-dimethoxyphenyl)cyclopentyl], 4-[(3-hydroxyphenol)methyl]oxolan-2-one) in breast cancer cells was evaluated using MTT assay. The MTT toxicity test is a colorimetric assay to measure cells' metabolic activity by serving as a substrate of cellular enzymes that reduce the tetrazolium orange dye, MTT (3-(4,5-Dimethylthiazol-2-yl)-2,5-diphenyltetrazolium bromide) to its insoluble, formazan, giving a purple color. The rate of conversion is directly proportional to cells' mitochondrial metabolic activity via NAD (P) H-dependent cellular oxidoreductase enzymes and serves as a surrogate marker of cell viability.
Cultures of MCF7 (human breast cancer cell line) working stock (5 passages) were established under standard culture conditions in Eagle's minimum essential medium (EMEM). EMEM was supplemented with 10% fetal bovine serum (FBS), 2 mM Glutamine and Pen/Strep, and Penicillin 0.01 mg/ml.
Cells previously expanded were seeded in 96 well plates at 1.9×10^5 and 9.6×10^4 cells/plate for 24- and 72-hours treatment respectively. This concentration is known to show the best window for the MTT assay, with better sensitivity and low variability.
5 mg of powdered enterolactone, dibenzyl butyl lactone derivative enantiomer A, and dibenzyl butyl lactone derivative enantiomer B were dissolved in 500 μl of DMSO at room temperature. Eight-point curves, ⅓ dilutions (highest concentration 125 μM), were prepared.
Twenty-four hours following the seeding process, the cells were washed once with phosphate buffered saline (PBS) and treated with the respective compounds in cell culture media. Each condition was tested in triplicates. For positive and negative controls, 8 mM methyl methane sulfonate (MMS) and DMSO 100% were used respectively.
Following compound addition, the plates were incubated for 24 and 72 hours. After the treatment period, cells were washed twice with PBS and media was replaced with MTT reagent at 0.5 mg/ml in Dulbecco's modified Eagle medium (DMEM) without phenol red. The plates were gently shaken and incubated for 4 hours. After the incubation the medium was removed and replaced by DMSO. The plates were gently shaken to solubilize the formazan crystals. Absorbance was measured using an Envision multiplate reader at a wavelength of 570 nm.
Eight serial dilutions were prepared (125.00, 41.67, 13.89, 4.63, 1.54, 0.51, 0.17 and 0.06 µM to evaluate the compounds (in triplicate). MTT results showing cell death values above 20% are considered as having a significant toxic effect.
MTT assay results are shown in Tables 2-7 and expressed as the percentage of cell death after treatment.

## O=C1OCC(Cc2ccc3c(c2)OCO3)/C1=C\c1cccc(O)c1 (single isomer, unassigned) [Enantiomer B, 3-[(3,4-dimethoxyphenyl)cyclopentyl], 4-[(3-hydroxyphenol)methyl]oxolan-2-one]
[1]
  TP Concentration: 49.8 µM
  TP concentration, fold lower than (+/−) enterolactone TP: 4-6 fold
  dTP Concentration: 15.1 µM
  dTP and TP concentrations compared with anti-cancer drugs tested in this assay: higher than >90% of the anti-cancer drugs
  similarity of dTP concentrations between all three compounds: ≤ 2 fold
[2]; MCF7, 24 hours, 0.06 μM
  Cell death #1 (%): −90.03%
  Cell death #2 (%): −85.75%
  Cell death #3 (%): −79.34%
  Cell death (%) MEAN: −85.04%
[2]; MCF7, 24 hours, 0.17 μM
  Cell death #1 (%): −146.30%
  Cell death #2 (%): −115.67%
  Cell death #3 (%): −91.45%
  Cell death (%) MEAN: −117.81%
[2]; MCF7, 24 hours, 0.51 μM
  Cell death #1 (%): −124.22%
  Cell death #2 (%): −120.66%
  Cell death #3 (%): −95.01%
  Cell death (%) MEAN: −113.30%
[2]; MCF7, 24 hours, 1.54 μM
  Cell death #1 (%): −115.67%
  Cell death #2 (%): −156.99%
  Cell death #3 (%): −114.96%
  Cell death (%) MEAN: −129.21%
[2]; MCF7, 24 hours, 4.63 μM
  Cell death #1 (%): −134.19%
  Cell death #2 (%): −163.40%
  Cell death #3 (%): −138.47%
  Cell death (%) MEAN: −145.35%
[2]; MCF7, 24 hours, 13.89 μM
  Cell death #1 (%): −132.06%
  Cell death #2 (%): −174.09%
  Cell death #3 (%): −134.91%
  Cell death (%) MEAN: −147.02%
[2]; MCF7, 24 hours, 41.67 μM
  Cell death #1 (%): −211.84%
  Cell death #2 (%): −192.61%
  Cell death #3 (%): −204.01%
  Cell death (%) MEAN: −202.82%
[2]; MCF7, 24 hours, 125.00 μM
  Cell death #1 (%): 63.85%
  Cell death #2 (%): 47.46%
  Cell death #3 (%): 63.13%
  Cell death (%) MEAN: 58.15%
[2]; MCF7, 72 hours, 0.06 μM
  Cell death #1 (%): −31.84%
  Cell death #2 (%): −27.21%
  Cell death #3 (%): −56.05%
  Cell death (%) MEAN: −38.37%
[2]; MCF7, 72 hours, 0.17 μM
  Cell death #1 (%): −74.60%
  Cell death #2 (%): −57.08%
  Cell death #3 (%): −52.45%
  Cell death (%) MEAN: −61.38%
[2]; MCF7, 72 hours, 0.51 μM
  Cell death #1 (%): −28.49%
  Cell death #2 (%): −52.45%
  Cell death #3 (%): −56.31%
  Cell death (%) MEAN: −45.75%
[2]; MCF7, 72 hours, 1.54 μM
  Cell death #1 (%): −22.57%
  Cell death #2 (%): −37.77%
  Cell death #3 (%): −19.48%
  Cell death (%) MEAN: −26.60%
[2]; MCF7, 72 hours, 4.63 μM
  Cell death #1 (%): −32.87%
  Cell death #2 (%): −34.42%
  Cell death #3 (%): −30.04%
  Cell death (%) MEAN: −32.44%
[2]; MCF7, 72 hours, 13.89 μM
  Cell death #1 (%): −23.34%
  Cell death #2 (%): −30.55%
  Cell death #3 (%): −9.69%
  Cell death (%) MEAN: −21.20%
[2]; MCF7, 72 hours, 41.67 μM
  Cell death #1 (%): −18.96%
  Cell death #2 (%): −6.08%
  Cell death #3 (%): 17.10%
  Cell death (%) MEAN: −2.65%
[2]; MCF7, 72 hours, 125.00 μM
  Cell death #1 (%): 99.00%
  Cell death #2 (%): 99.52%
  Cell death #3 (%): 99.00%
  Cell death (%) MEAN: 99.17%
[2]; MCF7, at higher concentrations, 24 hours and 72 hours post-treatment
  breast cancer cell death as compared to enterolactone: increased breast cancer cell death as compared to enterolactone

From patent US20250000843A1, “LIGNAN-INSPIRED COMPOUNDS, METHODS OF MAKING, AND USING THEREOF” (IOWAIBO, INC., priority 2023, published 2025)
